Results: ChEMBL document CHEMBL3045118, “Synthesis and biological activities of new Mannich bases of chlorokojic acid derivatives” (Med Chem Res, 2011)
≈ marks a conversion by molar mass, not a printed value.

Experiments:
Candida parapsilosis = assay: Antifungal activity against Candida parapsilosis ATCC 22019 by microdilution method; assay type: functional; settings: Lodderomyces parapsilosis
Enterococcus faecalis [1] = assay: Antibacterial activity against Enterococcus faecalis ATCC 29212 by microdilution method; assay type: functional
Human respirovirus 3 [2] = assay: Antiviral activity against Human parainfluenza virus 3 infected African green monkey Vero cells assessed as concentration required to cause maximum inhibition of virus-induced cytopathic effect; assay type: functional
[3] = Cytotoxicity against Chlorocebus aethiops (African green monkey) Vero cells assessed as maximum non-toxic concentration; assay type: cell-based; settings: chlorocebus sabaeus, read-out: MNCC
Human alphaherpesvirus 1 [4] = assay: Antiviral activity against Human herpesvirus 1 infected bovine MDBK cells assessed as concentration required to cause maximum inhibition of virus-induced cytopathic effect; assay type: functional
Klebsiella pneumoniae [5] = assay: Antibacterial activity against Klebsiella pneumoniae RSKK 574 by microdilution method; assay type: functional
Escherichia coli [6] = assay: Antibacterial activity against ESbetaL positive trimethoprim-sulfamethoxazole, cefepime, tazobactam-resistant Escherichia coli isolate by microdilution method; assay type: functional
Proteus mirabilis [7] = assay: Antibacterial activity against Proteus mirabilis ATCC 7002 by microdilution method; assay type: functional
Klebsiella pneumoniae [8] = assay: Antibacterial activity against ESbetaL positive trimethoprim-sulfamethoxazole, amoxicillin clavulonat, cefriaxon, cephepim, aztreonam-resistant Klebsiella pneumoniae by microdilution method; assay type: functional
Pseudomonas aeruginosa [9] = assay: Antibacterial activity against trimethoprim-sulfamethoxazole, tazobactam-resistant Pseudomonas aeruginosa by microdilution method; assay type: functional
Acinetobacter baumannii [10] = assay: Antibacterial activity against trimethoprim-sulfamethoxazole, cefepime-resistant Acinetobacter baumannii by microdilution method; assay type: functional
Pseudomonas aeruginosa [11] = assay: Antibacterial activity against Pseudomonas aeruginosa ATCC 10145 by microdilution method; assay type: functional
Candida albicans = assay: Antifungal activity against Candida albicans ATCC 10231 by microdilution method; assay type: functional
Bacillus subtilis [12] = assay: Antibacterial activity against ceftriaxon-resistant Bacillus subtilis by microdilution method; assay type: functional
Human respirovirus 3 [13] = assay: Antiviral activity against Human parainfluenza virus 3 infected African green monkey Vero cells assessed as concentration required to cause minimum inhibition of virus-induced cytopathic effect; assay type: functional
Staphylococcus aureus [14] = assay: Antibacterial activity against Staphylococcus aureus ATCC 25923 by microdilution method; assay type: functional
Enterococcus faecalis [15] = assay: Antibacterial activity against cephalosporins and beta-lactam-resistant Enterococcus faecalis by microdilution method; assay type: functional
Acinetobacter baumannii [16] = assay: Antibacterial activity against Acinetobacter baumannii RSKK 02026 by microdilution method; assay type: functional
Bacillus subtilis [17] = assay: Antibacterial activity against Bacillus subtilis ATCC 6633 by microdilution method; assay type: functional
[18] = Cytotoxicity against Bos taurus (bovine) MDBK cells assessed as maximum non-toxic concentration; assay type: cell-based; settings: cattle, read-out: MNCC
Human alphaherpesvirus 1 [19] = assay: Antiviral activity against Human herpesvirus 1 infected bovine MDBK cells assessed as concentration required to cause minimum inhibition of virus-induced cytopathic effect; assay type: functional
Escherichia coli [20] = assay: Antibacterial activity against Escherichia coli ATCC 35218 by microdilution method; assay type: functional
Proteus mirabilis [21] = assay: Antibacterial activity against ESbetaL positive rimethoprim-sulfamethoxazole, cefepime, tazobactam-resistant Proteus mirabilis by microdilution method; assay type: functional
Staphylococcus aureus [22] = assay: Antibacterial activity against oxacillin, gentamicin, aztreonam, trimethoprim-sulfamethoxazole-resistant Staphylococcus aureus by microdilution method; assay type: functional

| Compound | MIC (Candida parapsilosis) | MIC (Enterococcus faecalis [1]) | Activity (Human respirovirus 3 [2]) | MNTC [3] | Activity (Human alphaherpesvirus 1 [4]) | MIC (Klebsiella pneumoniae [5]) | MIC (Escherichia coli [6]) | MIC (Proteus mirabilis [7]) | MIC (Klebsiella pneumoniae [8]) | MIC (Pseudomonas aeruginosa [9]) | MIC (Acinetobacter baumannii [10]) | MIC (Pseudomonas aeruginosa [11]) | MIC (Candida albicans) | MIC (Bacillus subtilis [12]) | Activity (Human respirovirus 3 [13]) | MIC (Staphylococcus aureus [14]) | MIC (Enterococcus faecalis [15]) | MIC (Acinetobacter baumannii [16]) | MIC (Bacillus subtilis [17]) | MNTC [18] | further results |
| --- | --- | --- | --- | --- | --- | --- | --- | --- | --- | --- | --- | --- | --- | --- | --- | --- | --- | --- | --- | --- | --- |
| O=c1cc(CCl)oc(CN2CCN(c3ccc(F)cc3)CC2)c1O | 8 µg/mL (≈ 22.7 µM) | 16 µg/mL (≈ 45.4 µM) | 0.2 µg/mL | 1.6 µg/mL | 0.8 µg/mL | 16 µg/mL (≈ 45.4 µM) | 64 µg/mL | 16 µg/mL (≈ 45.4 µM) | 64 µg/mL (≈ 181 µM) | 64 µg/mL | 64 µg/mL (≈ 181 µM) | 32 µg/mL (≈ 90.7 µM) | 8 µg/mL (≈ 22.7 µM) | 32 µg/mL (≈ 90.7 µM) | 0.025 µg/mL | 16 µg/mL (≈ 45.4 µM) | 32 µg/mL (≈ 90.7 µM) | 32 µg/mL (≈ 90.7 µM) | 16 µg/mL (≈ 45.4 µM) | 0.8 µg/mL | Activity (Human alphaherpesvirus 1 [19]): 0.05 µg/mL; MIC (Escherichia coli [20]): 16 µg/mL (≈ 45.4 µM); MIC (Proteus mirabilis [21]): 64 µg/mL; MIC (Staphylococcus aureus [22]): 64 µg/mL (≈ 181 µM) |
| COc1ccccc1N1CCN(Cc2oc(CCl)cc(=O)c2O)CC1 | 8 µg/mL (≈ 21.9 µM) | 64 µg/mL (≈ 175 µM) | 0.2 µg/mL | 1.6 µg/mL | 0.8 µg/mL | 32 µg/mL (≈ 87.7 µM) | 64 µg/mL | 32 µg/mL (≈ 87.7 µM) | 64 µg/mL (≈ 175 µM) | 64 µg/mL | 64 µg/mL (≈ 175 µM) | 32 µg/mL (≈ 87.7 µM) | 8 µg/mL (≈ 21.9 µM) | 32 µg/mL (≈ 87.7 µM) | 0.05 µg/mL | 64 µg/mL (≈ 175 µM) | 128 µg/mL (≈ 351 µM) | 32 µg/mL (≈ 87.7 µM) | 16 µg/mL (≈ 43.9 µM) | 0.8 µg/mL | Activity (Human alphaherpesvirus 1 [19]): 0.2 µg/mL; MIC (Escherichia coli [20]): 32 µg/mL (≈ 87.7 µM); MIC (Proteus mirabilis [21]): 64 µg/mL; MIC (Staphylococcus aureus [22]): 128 µg/mL (≈ 351 µM) |
| COc1cccc(N2CCN(Cc3oc(CCl)cc(=O)c3O)CC2)c1 | 8 µg/mL (≈ 21.9 µM) | 64 µg/mL (≈ 175 µM) | 0.4 µg/mL | 1.6 µg/mL | 0.8 µg/mL | 32 µg/mL (≈ 87.7 µM) | 64 µg/mL | 32 µg/mL (≈ 87.7 µM) | 64 µg/mL (≈ 175 µM) | 64 µg/mL | 64 µg/mL (≈ 175 µM) | 32 µg/mL (≈ 87.7 µM) | 8 µg/mL (≈ 21.9 µM) | 32 µg/mL (≈ 87.7 µM) | 0.1 µg/mL | 64 µg/mL (≈ 175 µM) | 128 µg/mL (≈ 351 µM) | 32 µg/mL (≈ 87.7 µM) | 16 µg/mL (≈ 43.9 µM) | 0.8 µg/mL | Activity (Human alphaherpesvirus 1 [19]): 0.2 µg/mL; MIC (Escherichia coli [20]): 32 µg/mL (≈ 87.7 µM); MIC (Proteus mirabilis [21]): 64 µg/mL; MIC (Staphylococcus aureus [22]): 128 µg/mL (≈ 351 µM) |
| O=c1cc(CCl)oc(CN2CCN(c3ccccc3F)CC2)c1O | 8 µg/mL (≈ 22.7 µM) | 16 µg/mL (≈ 45.4 µM) | 0.2 µg/mL | 0.8 µg/mL | 0.8 µg/mL | 16 µg/mL (≈ 45.4 µM) | 64 µg/mL | 32 µg/mL (≈ 90.7 µM) | 64 µg/mL (≈ 181 µM) | 64 µg/mL | 64 µg/mL (≈ 181 µM) | 32 µg/mL (≈ 90.7 µM) | 8 µg/mL (≈ 22.7 µM) | 16 µg/mL (≈ 45.4 µM) | 0.025 µg/mL | 16 µg/mL (≈ 45.4 µM) | 32 µg/mL (≈ 90.7 µM) | 32 µg/mL (≈ 90.7 µM) | 8 µg/mL (≈ 22.7 µM) | 0.8 µg/mL | Activity (Human alphaherpesvirus 1 [19]): 0.05 µg/mL; MIC (Escherichia coli [20]): 16 µg/mL (≈ 45.4 µM); MIC (Proteus mirabilis [21]): 64 µg/mL; MIC (Staphylococcus aureus [22]): 64 µg/mL (≈ 181 µM) |
| O=c1cc(CCl)oc(CN2CCN(c3cccc(C(F)(F)F)c3)CC2)c1O | 8 µg/mL (≈ 19.9 µM) | 16 µg/mL (≈ 39.7 µM) | 0.4 µg/mL | 0.8 µg/mL | 0.8 µg/mL | 16 µg/mL (≈ 39.7 µM) | 64 µg/mL | 16 µg/mL (≈ 39.7 µM) | 64 µg/mL (≈ 159 µM) | 64 µg/mL | 64 µg/mL (≈ 159 µM) | 16 µg/mL (≈ 39.7 µM) | 8 µg/mL (≈ 19.9 µM) | 64 µg/mL (≈ 159 µM) | 0.025 µg/mL | 32 µg/mL (≈ 79.4 µM) | 32 µg/mL (≈ 79.4 µM) | 32 µg/mL (≈ 79.4 µM) | 32 µg/mL (≈ 79.4 µM) | 0.8 µg/mL | Activity (Human alphaherpesvirus 1 [19]): 0.05 µg/mL; MIC (Escherichia coli [20]): 16 µg/mL (≈ 39.7 µM); MIC (Proteus mirabilis [21]): 64 µg/mL; MIC (Staphylococcus aureus [22]): 64 µg/mL (≈ 159 µM) |
| O=c1cc(CCl)oc(CN2CCN(c3ccc(C(F)(F)F)cc3)CC2)c1O | 8 µg/mL (≈ 19.9 µM) | 8 µg/mL (≈ 19.9 µM) | 0.4 µg/mL | 0.4 µg/mL | 0.8 µg/mL | 32 µg/mL (≈ 79.4 µM) | 64 µg/mL | 16 µg/mL (≈ 39.7 µM) | 64 µg/mL (≈ 159 µM) | 64 µg/mL | 64 µg/mL (≈ 159 µM) | 16 µg/mL (≈ 39.7 µM) | 8 µg/mL (≈ 19.9 µM) | 64 µg/mL (≈ 159 µM) | 0.025 µg/mL | 16 µg/mL (≈ 39.7 µM) | 32 µg/mL (≈ 79.4 µM) | 16 µg/mL (≈ 39.7 µM) | 8 µg/mL (≈ 19.9 µM) | 0.8 µg/mL | Activity (Human alphaherpesvirus 1 [19]): 0.05 µg/mL; MIC (Escherichia coli [20]): 16 µg/mL (≈ 39.7 µM); MIC (Proteus mirabilis [21]): 64 µg/mL; MIC (Staphylococcus aureus [22]): 64 µg/mL (≈ 159 µM) |
